Reference: paper PMC12799524, “Putative new biomarkers for renal transporter-mediated drug-drug interactions: Characterization as substrates of organic cation transporter 2, multidrug and toxin extrusion protein 1, and other important drug transporters” (Drug Metabolism and Disposition, 2025)
Entries after “also recorded” stand apart in the source; their conditions may differ. Like-named read-outs stand apart in the source and are kept apart here. Marks after values point to notes of the source that are not given here.

How the values were obtained:
human OCT2 and MATE1 = assay: Intracellular accumulation and transcellular transport in double-transfected MDCK-OCT2-MATE1 monolayers; format: in vitro ADME; settings: for Intracellular concentration in MDCK-OCT2-MATE1 cells vs MDCK-VC cells: 10 μM basal, 60 minutes
Protocol: (§1) The intracellular accumulation and transcellular, basal to apical transport experiments were performed as previously described in monolayers of polarized single-transfected (MDCK-OCT2, MDCK-MATE1) and double-transfected (MDCK-OCT2-MATE1) MDCK cells, MDCK control cells (MDCK-VC), or Caco-2 cells.[22] In brief, cell monolayers were grown in cell culture inserts on porous membranes. For MDCK-VC, MDCK-OCT2 and Caco-2, 5 × 10^5 cells were used per well; for MDCK-OCT2-MATE1, 6 × 10^5 cells were used, and for MDCK-MATE1, 8 × 10^5 cells were used per well. Cells were grown to confluence for 72 hours, induced with 10 mM sodium butyrate 48 hours after seeding for 24 hours (MDCK only), and subsequently used for transport experiments.
(§2) In general, after the cell culture medium was removed from both sides of the monolayers, cells were washed at 37 °C with transport buffer of the same composition as described in the previous section. Experiments were started by replacing the medium in the basal compartment with medium containing the putative biomarkers or [^3H]-labeled positive control substrates. The pH of the buffer on the basal side was 7.3 and 6.5 on the apical side for MDCK cells, whereas it was 7.3 on either side for Caco-2 cells. Cells were incubated at 37 °C and the buffer from the apical compartment was taken after 60 minutes for MDCK cells and after 240 minutes for Caco-2 cells. In case of Caco-2 cells, endogenous P-gp was inhibited by adding 2 μM of valspodar to the basal compartment. To measure the cellular accumulation of the test compounds, the remaining medium was removed at the end of the incubation period and the cell monolayers were rapidly rinsed 3 times with ice-cold 0.9% NaCl in water. Filters were detached from the chambers and placed into 500 μL of 80% MeOH containing the aforementioned recovery standards to lyse cells for subsequent LC-MS analysis or into 600 μL of 0.2% SDS (control experiments only). In the control experiments, the radioactivity of the collected apical medium and the solubilized cell monolayers and protein concentrations of the cell lysates were measured in the same way as described for the experiments with HEK cells.
(§3) The intracellular background of all 5 compounds in HEK cells at the beginning of the uptake experiments was investigated 48 hours after seeding without incubation with transport buffer (ie, 0 minutes). […] Then, cells were lysed with ice-cold 80% MeOH containing the aforementioned recovery standards. In addition, the impact of a 5-minute incubation period with transport buffer without added substance was investigated.

human OCT2 = target: T1, human OCT2 (Homo sapiens, UniProt O15244); assay: Concentration-dependent transport in HEK-OCT2 cells (Km, Vmax); settings: concentrations up to 2000 μM; Km not calculable
T1 sequence (O15244 1-555): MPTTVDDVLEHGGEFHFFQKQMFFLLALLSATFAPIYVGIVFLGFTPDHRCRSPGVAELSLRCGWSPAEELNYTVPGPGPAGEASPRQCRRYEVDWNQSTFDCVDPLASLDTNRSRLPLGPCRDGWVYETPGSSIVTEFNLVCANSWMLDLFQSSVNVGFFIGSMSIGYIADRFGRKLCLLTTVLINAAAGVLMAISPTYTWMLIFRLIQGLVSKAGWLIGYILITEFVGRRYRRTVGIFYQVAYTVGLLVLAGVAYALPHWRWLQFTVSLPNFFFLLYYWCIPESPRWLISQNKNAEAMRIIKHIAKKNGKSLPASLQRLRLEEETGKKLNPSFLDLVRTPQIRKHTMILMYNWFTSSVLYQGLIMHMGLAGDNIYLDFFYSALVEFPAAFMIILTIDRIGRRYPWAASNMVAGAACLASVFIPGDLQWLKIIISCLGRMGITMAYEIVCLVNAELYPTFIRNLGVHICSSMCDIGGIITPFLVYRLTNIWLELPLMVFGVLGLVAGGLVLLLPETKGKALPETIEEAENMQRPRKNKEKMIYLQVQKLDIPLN
Protocol: (§4) Data are presented in percentage of respective controls (which were set to 100%) or in pmol × mg protein^–1 × min^–1 for concentration-dependent transport as mean ± SEM. All results were normalized to the mean protein concentrations of the cell lysates in the respective control experiments.
(§5) Experiments with putative biomarkers in HEK-OCT2 or HEK-MATE1 cells were performed with 6 independent biological replicates, whereas all other experiments involving HEK, MDCK, or Caco-2 cells were performed with 4 independent biological replicates. Pairwise comparisons were analyzed for statistical significance with two-tailed unpaired Student’s t test and multiple comparisons by one-way ANOVA with subsequent Tukey-Kramer multiple comparison test by using GraphPad Prism 10.0.2 (GraphPad Software). A value of P < .05 was considered as statistically significant. Km and Vmax values were determined with Michaelis-Menten enzyme kinetics curve fit using GraphPad Prism 10.0.2.

MATE1 [1] = target: T2, MATE1 (Homo sapiens, UniProt Q96FL8); assay: Concentration-dependent transport in HEK-MATE1 cells (Km, Vmax); format: in vitro ADME; parameters: expressed in transfected cells; host or cells: HEK293 (HEK-MATE1); settings: HEK-MATE1 net uptake; for Vmax for MATE1-mediated uptake: 5 min; for Km at 5 min: human, HEK-MATE1 cells, read-out: Km for MATE1-mediated transport
T2 sequence (Q96FL8 1-570): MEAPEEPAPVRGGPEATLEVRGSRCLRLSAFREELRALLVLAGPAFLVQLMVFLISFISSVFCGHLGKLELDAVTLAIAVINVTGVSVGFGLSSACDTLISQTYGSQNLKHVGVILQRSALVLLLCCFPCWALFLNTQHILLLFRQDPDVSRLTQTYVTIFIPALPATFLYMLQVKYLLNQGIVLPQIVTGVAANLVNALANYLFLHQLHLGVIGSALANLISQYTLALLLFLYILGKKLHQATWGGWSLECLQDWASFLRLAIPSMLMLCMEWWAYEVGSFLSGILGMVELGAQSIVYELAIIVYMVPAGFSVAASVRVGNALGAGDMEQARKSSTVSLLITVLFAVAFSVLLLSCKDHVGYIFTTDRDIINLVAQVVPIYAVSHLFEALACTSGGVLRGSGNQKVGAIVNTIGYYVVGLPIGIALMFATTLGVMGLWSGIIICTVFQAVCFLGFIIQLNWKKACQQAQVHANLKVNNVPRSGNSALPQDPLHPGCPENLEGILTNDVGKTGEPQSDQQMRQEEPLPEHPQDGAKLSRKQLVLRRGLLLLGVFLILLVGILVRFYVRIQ
Protocol: as §4, §5

[2] = cited from earlier work
MATE1 [3] = target: T2, MATE1; assay: Intracellular accumulation and transcellular transport in MDCK-MATE1 monolayers; settings: for Intracellular accumulation in MDCK-MATE1 cells compared to MDCK-VC cells / Transcellular basal to apical transport in MDCK-MATE1 cells vs MDCK-VC cells: 10 μM basal, 60 minutes
Protocol: as §1, §2, §3

P-gp = P-gp (Homo sapiens, UniProt P08183); assay: Intracellular accumulation and basal to apical transport in Caco-2 cells with/without valspodar; settings: for In Vitro P-gp (substrate class): Caco-2 cells, valspodar
Protocol: as §1, §2, §3

[4] = parameters: method as in PMID 39148267; settings: humans, cited from earlier work; for In Vivo Change of Renal Excretion, Cimetidine: median log2-fold change after treatment with cimetidine; for In Vivo Change of Renal Excretion, Probenecid: median log2-fold change after treatment with probenecid; for In Vivo Change of Renal Excretion, Rifampin: median log2-fold change after treatment with rifampin; for In Vivo Change of Renal Excretion, Verapamil: median log2-fold change after treatment with verapamil
MATE1 [5] = target: T2, MATE1; assay: Uptake assay in HEK-MATE1 vs HEK-VC cells (pH 8.0); settings: for Uptake in HEK-MATE1 cells compared to HEK-VC cells: 10 μM substrate; for Uptake in HEK-MATE1 cells compared to HEK-VC cells (in words) / Effect of cimetidine on uptake in HEK-MATE1 cells: 10 and 100 μM substrate; for Uptake in HEK-MATE1 cells compared to HEK-VC cells (in words): pH 8.0; for Effect of cimetidine on uptake in HEK-MATE1 cells: cimetidine 50 μM; for In Vitro MATE1 (substrate class): summary of in vitro uptake/transport results
Protocol: Transport experiments were performed 48 hours after seeding.
as §3

OCT1 = settings: read-out: Km for OCT1; cited from earlier work
OCT2 = settings: read-out: Km value for OCT2; ref Ma et al 17; cited from earlier work
[6] = 10 μM substrate, 240 minutes, valspodar 2 μM
[7] = 5 minutes, pH 8.0, HEK-VC set to 100%
[8] = 60 minutes without added substance
[9] = listed as 5-amino valeric acid betaine

P-gp, sequence (P08183 whole entry): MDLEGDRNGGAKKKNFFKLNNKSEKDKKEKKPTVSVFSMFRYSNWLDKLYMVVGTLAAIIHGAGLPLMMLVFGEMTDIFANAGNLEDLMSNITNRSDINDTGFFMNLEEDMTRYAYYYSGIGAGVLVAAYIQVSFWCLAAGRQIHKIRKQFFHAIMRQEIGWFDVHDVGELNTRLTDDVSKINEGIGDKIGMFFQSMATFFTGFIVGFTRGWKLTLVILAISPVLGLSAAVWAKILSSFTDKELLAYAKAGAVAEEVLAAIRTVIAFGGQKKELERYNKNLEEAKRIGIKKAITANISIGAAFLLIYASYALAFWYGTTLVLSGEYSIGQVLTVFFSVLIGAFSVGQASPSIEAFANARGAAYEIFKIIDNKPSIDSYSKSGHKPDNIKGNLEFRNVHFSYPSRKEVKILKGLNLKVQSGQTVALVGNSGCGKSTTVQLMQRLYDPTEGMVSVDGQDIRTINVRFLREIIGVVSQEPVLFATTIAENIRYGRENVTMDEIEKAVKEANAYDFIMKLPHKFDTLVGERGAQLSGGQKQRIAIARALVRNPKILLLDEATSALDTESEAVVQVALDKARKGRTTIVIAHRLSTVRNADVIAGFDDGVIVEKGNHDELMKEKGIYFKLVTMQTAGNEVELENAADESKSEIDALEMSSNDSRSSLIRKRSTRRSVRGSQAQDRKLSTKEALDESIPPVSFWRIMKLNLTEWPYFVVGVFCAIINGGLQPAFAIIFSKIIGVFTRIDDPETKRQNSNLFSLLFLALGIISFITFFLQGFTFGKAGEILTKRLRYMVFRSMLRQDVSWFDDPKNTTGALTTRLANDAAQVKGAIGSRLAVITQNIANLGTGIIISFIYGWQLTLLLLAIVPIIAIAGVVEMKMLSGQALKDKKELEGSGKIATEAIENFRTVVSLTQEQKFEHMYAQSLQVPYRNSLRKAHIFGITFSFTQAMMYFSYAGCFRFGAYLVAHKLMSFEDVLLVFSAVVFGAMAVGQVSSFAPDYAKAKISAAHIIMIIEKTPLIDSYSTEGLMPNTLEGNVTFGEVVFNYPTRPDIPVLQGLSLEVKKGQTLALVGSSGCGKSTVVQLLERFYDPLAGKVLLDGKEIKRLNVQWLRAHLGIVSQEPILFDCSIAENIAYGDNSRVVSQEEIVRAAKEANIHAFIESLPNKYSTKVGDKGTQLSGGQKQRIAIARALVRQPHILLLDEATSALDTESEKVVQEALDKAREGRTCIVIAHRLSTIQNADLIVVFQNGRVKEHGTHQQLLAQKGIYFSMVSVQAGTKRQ

| SMILES | Intracellular concentration in MDCK-OCT2-MATE1 cells vs MDCK-VC cells (human OCT2 and MATE1) | Vmax for MATE1-mediated uptake (MATE1 [1]) | Km at 5 min (MATE1 [1]) | Intracellular accumulation in MDCK-MATE1 cells compared to MDCK-VC cells (MATE1 [3]) | Effect of valspodar on basal to apical translocation in Caco-2 cells (P-gp; [6]) | In Vitro P-gp (substrate class) (P-gp) | In Vivo Change of Renal Excretion, Cimetidine [4] | In Vivo Change of Renal Excretion, Probenecid [4] | In Vivo Change of Renal Excretion, Rifampin [4] | In Vivo Change of Renal Excretion, Verapamil [4] | Uptake in HEK-MATE1 cells compared to HEK-VC cells (MATE1 [5]; [7]) | Uptake in HEK-MATE1 cells compared to HEK-VC cells (in words) (MATE1 [5]; 5 minutes) | Effect of cimetidine on uptake in HEK-MATE1 cells (MATE1 [5]; 5 minutes) | In Vitro MATE1 (substrate class) (MATE1 [5]) | Transcellular basal to apical transport in MDCK-MATE1 cells vs MDCK-VC cells (MATE1 [3]) | other results |
| --- | --- | --- | --- | --- | --- | --- | --- | --- | --- | --- | --- | --- | --- | --- | --- | --- |
| Cn1cnc(CCN)c1 [1-Methylhistamine, 1-methylhistamine] | significantly higher | 441.4 ± 50.5 pmol*mg protein^-1*min^-1 | 307 ± 88.1 µM | no significant difference | significantly reduced | 0 (significant uptake in HEK cells, but less than 300% of respective control cells or significant reduction of transcellular transport in Caco-2 cells, but reduction not below 50% of respective control without valspodar) | –2.01 ^c log2-fold change | –0.25 log2-fold change | –0.07 log2-fold change | 0.03 log2-fold change | 778% | significantly higher | significantly reduced | ++ |  | Saturation of net uptake in HEK-OCT2 cells (human OCT2): did not result in a saturation; also recorded: not saturable; Mean urinary excretion ([2]; healthy individuals): around 120 μg/g creatinine; Transcellular transport in Caco-2 cells with valspodar, of the respective control (P-gp; 10 μM substrate, 240 minutes, valspodar 2 μM, without valspodar set to 100%): 67% |
| C[N+](C)(C)CCCCC(=O)[O-] [5-Amino valeric acid betaine, 5-amino valeric acid betaine] | no significant difference |  |  | significant reduction | no significant effect | - | –4.28 ^c log2-fold change | –0.56 ^c log2-fold change | –0.21 log2-fold change | –1.00 log2-fold change |  | significantly lower |  | + | not statistically significant | Intracellular background in MDCK-OCT2-MATE1 cells (human OCT2 and MATE1; [8]): no 5-amino valeric acid betaine could be detected; Intracellular background in MDCK-MATE1 cells (MATE1 [3]; [8]): no 5-amino valeric acid betaine could be detected; Renal elimination, change after cimetidine ([4]; cimetidine): –3.62 log2-fold change; In Vivo Change of Renal Excretion, Cimetidine [4, 9]: –4.28 log2-fold change; In Vivo Change of Renal Excretion, Probenecid [4, 9]: –1.00 log2-fold change; Intracellular background in HEK-MATE1 cells compared to HEK-VC cells (MATE1 [5]; 0 minutes and 5 minutes without added substance): lower |
| NCCc1c[nH]c2ccc(O)cc12 [Serotonin, serotonin] | significantly higher | 154.3 ± 7.3 pmol*mg protein^-1*min^-1 | 52.7 ± 10.9 µM | no significant difference | no significant effect | - | –2.89 ^c log2-fold change | 0.06 log2-fold change | –0.06 log2-fold change | 0.00 log2-fold change | 2469% | significantly higher | significantly reduced | ++ | considerably increased | Km (OCT1): 197 ± 42 µM; Urinary excretion ([2]; healthy subjects): 0.21 ± 0.08 nmol/mL/mg creatinine; Km (OCT2): 539 µM; Plasma concentrations, effect of cimetidine ([4]; cimetidine): did not sensitively change; Urine to plasma ratio, change by cimetidine ([4]; cimetidine): –1.94 log2-fold change; In Vivo Change of Renal Excretion, Cimetidine ([4]; listed as serotonin): –2.89 log2-fold change; Uptake ratio in HEK-MATE1 cells compared to HEK-VC cells (MATE1 [5]; 100 μM substrate, 5 minutes, pH 8.0, HEK-VC set to 100%): 1461% |
| NCCc1ccc(O)cc1 [Tyramine, tyramine] | no significant difference |  |  | no significant difference | no significant effect | - | –3.00 ^c log2-fold change | –0.82 log2-fold change | –0.11 log2-fold change | –0.22 log2-fold change | 545% | significantly higher | significantly reduced | ++ |  | Renal clearance ([2]; healthy volunteers, after oral administration of 400 mg tyramine): 260 mL/min |
